Assays:
[1] = tested on: HL-60(TB); assay: NCI 60-cell panel dose-response; format: cell-based, human; settings: HL-60(TB) (Leukemia)
[2] = tested on: COLO 205; assay: NCI 60-cell panel dose-response; format: cell-based; settings: Homo sapiens; COLO 205 (Colon cancer)
[3] = tested on: HeLa cells; assay: Cell cycle profile by FACS; format: cell-based, human; settings: dose- and time-dependent
Source text: Cell cycle arrest is an important damage surveillance mechanism. […] Treating the cells with NSC745885 caused 47-58% of cells to arrest in sub-G1, which is indicative of cell death. This effect was dose- and time-dependent (FIG. 3, Panel B).

[4] = tested on: HeLa cells; assay: Autophagy: LC3B-II immunoblot; format: cell-based, human; settings: 12 hours
Method: (§1) Cell lysates were prepared in lysis buffer (100 mM Tris-HCl pH 8.0, 150 mM NaCl, 0.1% SDS, and 1% Triton 100) at 4° C., separated by sodium dodecyl sulfate-polyacrylamide gel electrophoresis (SDS-PAGE), and then transferred onto a polyvinylidine difluoride membrane (Millipore, USA). Proteins were detected using antibodies against alpha actinin (ACTN), proliferating cell nuclear antigen (PCNA), p53, p21, cyclin B1, and cyclin D1 (Santa Cruz Biotechnology, USA), YH2A.X (EP854(2)Y, Epitomics, USA), cleaved caspase 3, cleaved poly(ADP-ribose) polymerase (PARP) and LC3B-II (Cell signaling, USA).
Altered intracellular localization of LC3B (LC3B-I) and increased electrophoretic mobility of LC3B (LC3B-II) are correlated with recruitment to autophagic membranes and can be used as molecular markers for autophagic activation.
In FIG. 5A, HeLa cells were treated with the indicated concentrations of DXR, NSC745885 for 12 hours, and then cell lysates were analyzed by immunoblot using antibodies directed against LC3. The results are representative of three independent experiments.

[5] = tested on: HeLa cells; assay: Autophagosome formation, GFP-LC3 fluorescence microscopy; format: cell-based, human; settings: HeLa cells transfected with GFP-LC3; 2.5 μM NSC745885, 12 hours
Method: In FIG. 5B, HeLa cells were transfected with 0.25 μg of an expression vector for GFP-LC3 for 24 hours and then treated with 2.5 μM NSC745885 for 12 hours. […] Vehicle (DMSO) and spermidine (Spd) were used as a negative and positive control, respectively.
In FIGS. 5C and 5D, HeLa cells were incubated with 2.5 μM NSC745885 for 24 hours. After 48 hours, cells were subjected to SA-β-galactosidase staining (FIG. 5C) and approximately 100 stained cells were quantified (*P<0.05; ** P<0.01; *** P<0.005). NSC745885 induced senescence at a rate of 25% (P=0.0085 compared to DMSO). (FIG. 5D) LC3B-I fragments were observed when the cells were exposed to the drug for longer period of time (FIG. 5A, panel labeled as LE). […] We also treated Hela cells with the autophagy inducer spermidine (Spd) and vehicle (DMSO), which act as the positive and the negative control, respectively.

[6] = tested on: p53 and p21; assay: p53 and p21 protein expression, immunoblot; format: cell-based, human; settings: HeLa cells, 12 hours, immunoblot
Method: as §1
Cell cycle regulatory protein p21 is one of p53's targets. […] In this experiment, HeLa cells were treated with the indicated concentrations of DXR or NSC745885 for 12 hours and then assessed by immunoblot (FIG. 6A) and RT-PCR (FIG. 6B).
In FIG. 6C, HeLa cells were treated with the indicated concentrations of NSC745885 for 12 hours; proteasome inhibitor MG132 (1 uM or 10 uM) was added 3 hours before harvesting. Cell protein extracts were tested with anti-p53 and anti-p21 antibodies. The results are representative of two independent experiments.

[7] = tested on: p21 promoter reporter (p21-LUC); assay: p21 promoter reporter (p21-LUC) luciferase assay; format: cell-based, human; settings: HeLa cells, highest concentration
Method: (§2) HeLa and HeLa/shp53 cells were grown in DMEM supplemented with 10% charcoal/dextran-treated fetal bovine serum. Cells in a 24-well plate were transfected with jetPEI (PolyPlus-transfection, France) according to the manufacturer's protocol; total DNA was adjusted to 1.0 μg by the addition of empty vector DNA. Luciferase assays were performed using the Promega Luciferase Assay kit, and the measurement was expressed numerically as relative light units (RLU). Luciferase activities were presented as means and standard deviation of two transfected sets. […] Instead, the reproducibility of the observed effects on luciferase activity was determined in multiple independent transfection experiments.
HeLa cells infected with human papillomavirus and expressing the E6 oncoprotein, which maintains endogenous wild-type p53 at a very low concentration, are used as a model system for studying human cervical tumorigenesis. In order for us to confirm the effects of DXR and NSC745885 on endogenous p53, HeLa cells were transiently transfected with a p53-dependent reporter (pG13-LUC) (FIG. 7A) and a p21 promoter reporter (p21-LUC) (FIG. 7B), along with an expression vector for a well-known p53 activator (Zac1).

[8] = tested on: HeLa/shp53 cells; assay: MTT cell viability assay, HeLa vs HeLa/shp53; format: cell-based, human; settings: endogenous p53 silenced; 24, 48, 72 hours
Method: as §2
To understand the functional role that endogenous p53 plays in the cytotoxic effects of DXR and NSC745885, we measured cell viability of HeLa or HeLa/shp53 cells using MTT cell viability assay. In this assay, endogenous p53 is silenced, both in the presence or absence of the drugs (FIG. 8). […]

[9] = tested on: MBT2; assay: Cell proliferation inhibition, bladder cancer cell line; format: cell-based; settings: MBT2 bladder cancer cells, 2.5 uM
Source text: (§3) To investigate the cell proliferation inhibition effect of NSC745885 in cancer cells, we compared the cancer cell proliferation inhibition effect of the NSC745885 with well-know bladder anti-cancer agent “Emodin” and clinical cancer chemical therapy agent “Doxorubicin”. The experiment bladder cancer cell lines includes T24 (FIG. 9A, 9D) and MBT2 (FIG. 9 B, 9E). We also confirm the NSC745885 cell toxicity using the non-cancer cell fibroblast 3T3 (FIG. 9C) and normal epithelial cell SV_UC—1 (FIG. 9F).

[10] = tested on: T24; assay: as above; format: cell-based; settings: T24 bladder cancer cells, 2.5 uM
Source text: as §3

[11] = tested on: SV_UC—1; assay: Cell toxicity in normal epithelial cell; format: cell-based
Source text: as §3

[12] = tested on: U1R; assay: Cell proliferation inhibition in anti-Doxorubicin cell line; format: cell-based
[13] = tested on: SAS cells; assay: SAS cell proliferation / morphology; format: cell-based; settings: 2.5 uM and 5 uM, 24 hours

O=C1c2ccccc2C(=O)c2c1ccc1nsnc21 [NSC745885, anthra[2,1-c][1,2,5]thiadiazole-6,11-dione]
GI50 [1]: 160 nM | TGI [1]: 400 nM | GI50 [2]: 13400 nM | cells arrested in sub-G1 [3]: 47-58% | LC3B-II fragment formation (autophagic activation) [4]: LC3B-II fragment formation | autophagosome formation (LC3 aggregation, GFP-LC3) [5]: autophagosome formation | p53 and p21 protein levels [6]: decreased p21 as well as p53 in a concentration-dependent manner | p21 promoter reporter activity [7]: decreased p21 promoter reporter activity | sensitivity (cell viability, MTT) in HeLa/shp53 versus HeLa cells [8]: significantly enhanced | cancer cell proliferation inhibition [9]: distinct cancer cell proliferation inhibition ability | cancer cell proliferation inhibition [10]: distinct cancer cell proliferation inhibition ability | cell toxicity in normal cell [11]: no cell toxicity | cell proliferation inhibition [12]: distinct the cell proliferation inhibiting ability | SAS cells proliferation [13]: significantly inhibit

Source: patent US8772321B2, “Heteroannelated anthraquinone derivatives for inhibiting cancers” (National Defense Medical Center, priority 2008, dated 2014)
